Results reported in the NIST ThermoML archive (doi:10.1021/je401015e).
± gives the expanded uncertainty stated by the source.

Conditions: Liquid; for mass density: Buoyancy - hydrostatic balance with magnetic suspension - one sinker

C=CCCCC [hex-1-ene]
Conditions	mass density [kg/m3]	viscosity [mPa·s]
298.15 K, 98 kPa	669.71 ± 11	0.271 ± 0.009
298.15 K, 24510 kPa	696.93 ± 11	0.337 ± 0.011
298.15 K, 49030 kPa	714.95 ± 11	0.415 ± 0.014
298.15 K, 98060 kPa	744.22 ± 12	0.55 ± 0.018
298.15 K, 147100 kPa	763.36 ± 12	0.705 ± 0.023
298.15 K, 196130 kPa	778.91 ± 12	0.876 ± 0.029
298.15 K, 245160 kPa	793.17 ± 13	1.093 ± 0.036
303.15 K, 98 kPa	664.87 ± 11	0.256 ± 0.009
303.15 K, 24510 kPa	690.93 ± 11	0.321 ± 0.011
303.15 K, 49030 kPa	711.55 ± 11	0.395 ± 0.013
303.15 K, 98060 kPa	741.4 ± 12	0.525 ± 0.017
303.15 K, 147100 kPa	761.37 ± 12	0.67 ± 0.022
303.15 K, 196130 kPa	776.19 ± 12	0.84 ± 0.028
303.15 K, 245160 kPa	791.19 ± 13	1.034 ± 0.034
312.92 K, 98 kPa	655.77 ± 10	0.232 ± 0.008
325.17 K, 98 kPa	644.12 ± 10	0.21 ± 0.007
325.99 K, 98060 kPa	729.28 ± 12	0.442 ± 0.015
326 K, 24510 kPa	675.1 ± 11	0.274 ± 0.009
326.02 K, 49030 kPa	694.93 ± 11	0.328 ± 0.011
326.05 K, 147100 kPa	750.05 ± 12	0.561 ± 0.019
326.12 K, 196130 kPa	767.98 ± 12	0.694 ± 0.023
326.15 K, 245160 kPa	783.2 ± 12	0.836 ± 0.028
364.25 K, 245160 kPa	767.68 ± 12	0.628 ± 0.021
364.63 K, 196130 kPa	751.74 ± 12	0.54 ± 0.018
364.69 K, 49030 kPa	670.17 ± 11	0.254 ± 0.009
364.73 K, 24510 kPa	645.55 ± 10	0.214 ± 0.007
364.75 K, 98060 kPa	706.69 ± 11	0.346 ± 0.012
364.83 K, 147100 kPa	731.74 ± 12	0.437 ± 0.015
398.25 K, 147100 kPa	715.97 ± 11	0.363 ± 0.012
398.35 K, 245160 kPa	753.74 ± 12	0.516 ± 0.017
398.37 K, 196130 kPa	736.05 ± 12	0.444 ± 0.015
398.43 K, 24510 kPa	618.11 ± 9.8	0.17 ± 0.006
398.78 K, 98060 kPa	687.13 ± 11	0.287 ± 0.01
398.87 K, 49030 kPa	645.8 ± 10	0.211 ± 0.007
422.37 K, 245160 kPa	743.17 ± 12	0.456 ± 0.015
422.71 K, 196130 kPa	726.21 ± 12	0.389 ± 0.013
422.74 K, 147100 kPa	703.54 ± 11	0.319 ± 0.011
422.9 K, 98060 kPa	672.81 ± 11	0.252 ± 0.009
423.1 K, 49030 kPa	630.04 ± 10	0.184 ± 0.006
423.18 K, 24510 kPa	598.39 ± 9.5	0.146 ± 0.005
452.77 K, 24510 kPa	575.45 ± 9.2	0.124 ± 0.004
453.14 K, 49030 kPa	608.12 ± 9.7	0.16 ± 0.006
453.14 K, 196130 kPa	712.63 ± 11	0.338 ± 0.011
453.19 K, 98060 kPa	656.91 ± 10	0.218 ± 0.007
453.28 K, 147100 kPa	687.84 ± 11	0.277 ± 0.009
453.52 K, 245160 kPa	732.58 ± 12	0.397 ± 0.013
471.55 K, 196130 kPa	704.21 ± 11	0.315 ± 0.011
471.64 K, 245160 kPa	725.42 ± 12	0.371 ± 0.012
471.73 K, 49030 kPa	598.79 ± 9.5	0.15 ± 0.005
471.78 K, 98060 kPa	646.27 ± 10	0.204 ± 0.007
471.92 K, 24510 kPa	560.56 ± 8.9	0.115 ± 0.004
472.02 K, 147100 kPa	680.82 ± 11	0.26 ± 0.009

C=CCCCCC [1-heptene]
Conditions	mass density [kg/m3]	viscosity [mPa·s]
298.15 K, 98 kPa	694.51 ± 11	0.362 ± 0.012
298.15 K, 24510 kPa	718.23 ± 11	0.451 ± 0.015
298.15 K, 49030 kPa	734.7 ± 12	0.544 ± 0.018
298.15 K, 98060 kPa	765.58 ± 12	0.739 ± 0.024
298.15 K, 147100 kPa	783.57 ± 12	0.942 ± 0.031
298.15 K, 196130 kPa	800.85 ± 13	1.226 ± 0.04
298.15 K, 245160 kPa	816.79 ± 13	1.499 ± 0.049
303.15 K, 98 kPa	689.57 ± 11	0.346 ± 0.012
303.15 K, 24510 kPa	715 ± 11	0.431 ± 0.014
303.15 K, 49030 kPa	733.1 ± 12	0.52 ± 0.017
303.15 K, 98060 kPa	761.82 ± 12	0.706 ± 0.023
303.15 K, 147100 kPa	780.46 ± 12	0.903 ± 0.03
303.15 K, 196130 kPa	797.46 ± 13	1.162 ± 0.038
303.15 K, 245160 kPa	815.3 ± 13	1.429 ± 0.047
312.83 K, 98 kPa	680.92 ± 11	0.314 ± 0.011
322.39 K, 98 kPa	672.17 ± 11	0.288 ± 0.01
327.47 K, 24510 kPa	697.97 ± 11	0.351 ± 0.012
327.48 K, 98060 kPa	746.71 ± 12	0.575 ± 0.019
327.49 K, 98 kPa	668.07 ± 11	0.278 ± 0.009
327.49 K, 49030 kPa	718.4 ± 11	0.429 ± 0.014
327.63 K, 147100 kPa	767.87 ± 12	0.741 ± 0.024
327.63 K, 196130 kPa	786.42 ± 13	0.925 ± 0.03
327.67 K, 245160 kPa	805.58 ± 13	1.136 ± 0.037
340.21 K, 98 kPa	655.95 ± 10	0.251 ± 0.008
354.73 K, 98 kPa	643.5 ± 10	0.224 ± 0.008
359.63 K, 245160 kPa	791.61 ± 13	0.883 ± 0.029
359.74 K, 147100 kPa	750.76 ± 12	0.587 ± 0.019
359.75 K, 196130 kPa	773.85 ± 12	0.726 ± 0.024
359.87 K, 98060 kPa	730.37 ± 12	0.457 ± 0.015
359.96 K, 49030 kPa	699.31 ± 11	0.34 ± 0.011
360.03 K, 98 kPa	638.93 ± 10	0.215 ± 0.007
360.06 K, 24510 kPa	672.86 ± 11	0.278 ± 0.009
392.4 K, 245160 kPa	776.73 ± 12	0.709 ± 0.023
392.46 K, 196130 kPa	758.9 ± 12	0.591 ± 0.02
392.61 K, 147100 kPa	734.09 ± 12	0.48 ± 0.016
392.68 K, 49030 kPa	676.29 ± 11	0.277 ± 0.009
392.74 K, 98060 kPa	714.89 ± 11	0.377 ± 0.013
392.79 K, 24510 kPa	646.48 ± 10	0.226 ± 0.008
423.82 K, 196130 kPa	745.35 ± 12	0.489 ± 0.016
424.04 K, 147100 kPa	717.45 ± 11	0.4 ± 0.013
424.07 K, 245160 kPa	760.78 ± 12	0.574 ± 0.019
424.11 K, 24510 kPa	619.97 ± 9.9	0.182 ± 0.006
424.17 K, 49030 kPa	653.79 ± 10	0.226 ± 0.008
424.17 K, 98060 kPa	697.03 ± 11	0.311 ± 0.01
452.22 K, 196130 kPa	733.49 ± 12	0.434 ± 0.014
452.25 K, 98060 kPa	676.86 ± 11	0.28 ± 0.009
452.27 K, 245160 kPa	750.38 ± 12	0.503 ± 0.017
452.28 K, 147100 kPa	702.95 ± 11	0.355 ± 0.012
452.34 K, 49030 kPa	628.89 ± 10	0.198 ± 0.007
452.35 K, 24510 kPa	595.84 ± 9.5	0.16 ± 0.006
473.28 K, 196130 kPa	723.12 ± 12	0.407 ± 0.014
473.33 K, 147100 kPa	692.3 ± 11	0.333 ± 0.011
473.35 K, 245160 kPa	737.15 ± 12	0.47 ± 0.016
473.47 K, 98060 kPa	665.45 ± 11	0.262 ± 0.009
473.56 K, 49030 kPa	612.5 ± 9.8	0.183 ± 0.006
473.7 K, 24510 kPa	578.48 ± 9.2	0.148 ± 0.005
